What was measured:
plasma protein = details: TKIs in clinical use; cited from earlier work
[1] = test system: alpha 1-acid glycoprotein (AAG); details: reported; cited from earlier work
[2] = Average plasma concentration of erlotinib co-administered with MM-121; type: in vivo, human; details: for Erlotinib Avg Conc.: plasma
Description: The ability of the anti-ErbB3 agent to alter the pharmacokinetics of a co-administered AAGB or TKI can be evaluated by measuring serum drug levels and calculating pharmacokinetic parameters. Pharmacokinetic parameters referred to herein (e.g., Example 1) describe the in vivo characteristics of a drug over time. These include plasma concentration (C), as well as Cmax, Tmax, and AUC. The term “Cmax” refers to the measured plasma concentration of the active agent at the point of maximum, or peak, concentration following an administration. The term “Tmax” refers to the time from drug administration until Cmax is reached. The term “AUC” refers to the area under the curve of a graph of the measured plasma concentration of an active agent vs. time, measured from one time point to another time point. For example AUC0-t is the area under the curve of plasma concentration versus time from time 0 to time t, where time 0 is the time of initial administration of the drug. Time t can be the last time point with measurable plasma concentration for an individual drug.
Patients also received one of two different doses of erlotinib (either 100 mg or 150 mg) administered daily orally. The antibody administration began on Day 1 and continued with weekly doses and the erlotinib administration began on Day 2 and continued with daily doses. Pharmacokinetic parameters were monitored for the duration of treatment, until the patient's cancer progressed or the patient came off the study.
For the erlotinib, the average plasma concentration was measured.

SMILES	plasma protein binding (plasma protein)	binding to AAG that can alter bioavailability [1]	also measured
C#Cc1cccc(Nc2ncnc3cc(OCCOC)c(OCCOC)cc23)c1 [Erlotinib, erlotinib]	high	significant binding	higher average plasma concentration of erlotinib ([2]; Patient 5 (12 mg/kg MM-121) vs Patient 2 (6 mg/kg MM-121), each 150 mg erlotinib): approximately 2.19 fold; higher average plasma concentration of erlotinib ([2]; Patient 8 (12 mg/kg MM-121) vs Patient 1 (6 mg/kg MM-121), each 100 mg erlotinib): approximately 2.02 fold; Erlotinib Avg Conc. ([2]; Subject 1, erlotinib 100 mg daily oral + MM-121 6 mg/kg weekly i.v.): 384 ng/mL; Erlotinib Avg Conc. ([2]; Subject 2, erlotinib 150 mg daily oral + MM-121 6 mg/kg weekly i.v.): 624 ng/mL; Erlotinib Avg Conc. ([2]; Subject 3, erlotinib 150 mg daily oral + MM-121 6 mg/kg weekly i.v.): 569 ng/mL; Erlotinib Avg Conc. ([2]; Subject 4, erlotinib 150 mg daily oral + MM-121 6 mg/kg weekly i.v.): 656 ng/mL; Erlotinib Avg Conc. ([2]; Subject 5, erlotinib 150 mg daily oral + MM-121 12 mg/kg weekly i.v.): 1370 ng/mL; Erlotinib Avg Conc. ([2]; Subject 6, erlotinib 150 mg daily oral + MM-121 12 mg/kg weekly i.v.): 1165.3 ng/mL; Erlotinib Avg Conc. ([2]; Subject 7, erlotinib 100 mg daily oral + MM-121 12 mg/kg weekly i.v.): 2395.6 ng/mL; Erlotinib Avg Conc. ([2]; Subject 8, erlotinib 100 mg daily oral + MM-121 12 mg/kg weekly i.v.): 777.5894 ng/mL; higher average plasma concentration of erlotinib ([2]; patients treated with 12 mg/kg anti-ErbB3 antibody compared to patients treated with 6 mg/kg): 2-3 fold
CS(=O)(=O)CCNCc1ccc(-c2ccc3ncnc(Nc4ccc(OCc5cccc(F)c5)c(Cl)c4)c3c2)o1 [lapatinib]	high	significant binding	–
CNC(=O)c1cc(Oc2ccc(NC(=O)Nc3ccc(Cl)c(C(F)(F)F)c3)cc2)ccn1 [sorafenib]	high	–	–
Cc1ccc(NC(=O)c2ccc(CN3CCN(C)CC3)cc2)cc1Nc1nccc(-c2cccnc2)n1 [imatinib]	–	significant binding	–
CCN(CC)CCNC(=O)c1c(C)[nH]c(/C=C2\C(=O)Nc3ccc(F)cc32)c1C [sunitinib]	high	–	–
Cc1ccc(Nc2nccc(N(C)c3ccc4c(C)n(C)nc4c3)n2)cc1S(N)(=O)=O [pazopinib]	high	–	–
Cc1nc(Nc2ncc(C(=O)Nc3c(C)cccc3Cl)s2)cc(N2CCN(CCO)CC2)n1 [dasatinib]	high	–	–
CN(C)C/C=C/C(=O)Nc1cc2c(Nc3ccc(F)c(Cl)c3)ncnc2cc1O[C@H]1CCOC1 [afatinib]	high	–	–
Cc1cn(-c2cc(NC(=O)c3ccc(C)c(Nc4nccc(-c5cccnc5)n4)c3)cc(C(F)(F)F)c2)cn1 [nilotinib]	high	–	–
COc1cc2ncnc(Nc3ccc(F)c(Cl)c3)c2cc1OCCCN1CCOCC1 [gefitinib]	high	significant binding	–

Source: patent US20140234317A1, “METHODS FOR PREVENTING TOXIC DRUG-DRUG INTERACTIONS IN COMBINATION THERAPIES COMPRISING ANTI-ERBB3 AGENTS” (Merrimack Pharmaceuticals, Inc., priority 2011, published 2014)
